# Test results published in US12485147B2, “Method for producing cell mass including pituitary tissue, and cell mass thereof” (SUMITOMO CHEMICAL COMPANY, LIMITED, priority 2017, dated 2025).
# B1: BMP4: BMP protein; BMP signal transduction pathway activating substance (protein, UniProt P12644 293-408, looked up)
# Bone morphogenetic protein 4: SPKHHSQRARKKNKNCRRHSLYVDFSDVGWNDWIVAPPGYQAFYCHGDCPFPLADHLNSTNHAIVQTLVNSVNSSIPKACCVPTELSAISMLYLDEYDKVVLKNYQEMVVEGCGCR
# Experiments:
# Format in all cases: cell-based
# [1] = tested on: Human ES cells (KhES-1 strain); test: Addition conditions of Sonic hedgehog signal transduction pathway activating substance (SAG) in production of cell mass containing pituitary tissue; bright field observation; conditions: day 28
# Procedure: (§1) Human ES cells (KhES-1 strain, obtained from Kyoto University) were cultured under feeder-free conditions according to the method described in Scientific Reports, 4, 3594 (2014). As the feeder-free medium, StemFit medium was used and, as the feeder-free scaffold, Laminin 511-E8 was used.
# (§2) Specific maintenance culturing operation was performed in the same manner as in Example 1.
# (§3) Thereafter, suspension culturing in a 96 well plate was started under conditions similar to those in Example 1.
# A serum-free medium not containing Y27632 and containing IWP-2, SB-431542, BMP4, and SAG was added at 100 μl per well on day 2 from the start of suspension culturing. BMP4 was added at 3 nM to the medium so that the final concentration in the well would be 1.5 nM. SAG was added at a final concentration of 100, 300, 500, 700 nM, 1, 2, 5 μM as a Sonic hedgehog signal transduction pathway activating substance. The condition without addition of a Sonic hedgehog signal transduction pathway activating substance during the suspension culturing period was taken as the control (-SAG condition, FIG. 5A).
# A half amount of the medium was changed with a serum-free medium not containing Y27632 or BMP4, and containing IWP-2, SB-431542, each concentration of SAG on days 6, 10, 13, 17, 21, 24 from the start of suspension culturing. […]
# [2] = tested on: Human ES cells (KhES-1 strain); test: Effect of compound treatment before differentiation induction in production of cell mass containing pituitary tissue; bright field observation; conditions: day 28
# Procedure: Human ES cells (KhES-1 strain) were cultured under feeder-free conditions according to the method described in Scientific Reports, 4, 3594 (2014). As the feeder-free medium, StemFit medium was used and, as the feeder-free scaffold, Laminin 511-E8 was used. Specific maintenance culturing operation was performed in the same manner as in Example 1. As a pre-treatment for differentiation induction of the cultured cells, cells under 4 conditions were maintenance cultured under conditions in which, condition in which nothing is simultaneously added with medium change with […] medium (Control), conditions in which 300 nM SAG alone is added (+300 nM SAG), conditions in which 5 μM SB-431542 alone is added (+5 μM SB-431542), and conditions in which SAG and SB431542 are simultaneously added (+SAG/SB) at 6 days after seeding. The next day of the above-mentioned treatment, human ES cells under 4 conditions that reached subconfluence were each subjected to differentiation induction by suspension culturing into a cell mass containing pituitary tissue according to the method described in Example 1. Bright field observation was performed under an inverted microscope on day 28 from the start of suspension culturing (FIGS. 6A-D).
# [3] = tested on: Human iPS cells (HC-6 #10 strain); test: Cell mass from human iPS cells using BMP signal transduction pathway inhibiting substance (K02288) after addition of BMP4; bright field observation and immunostaining; conditions: K02288 300 nM added on day 3, 6 or 10; day 28
# Procedure: Human iPS cells (HC-6 #10 strain, obtained from RIKEN) were cultured under feeder-free conditions according to the method described in Scientific Reports, 4, 3594 (2014). As the feeder-free medium, StemFit medium was used and, as the feeder-free scaffold, Laminin 511-E8 was used.
# as §2
# The thus-prepared subconfluent human iPS cells were washed with PBS, subjected to an enzyme treatment using Accumax, a serum-free medium for differentiation induction was added, and the cells were scraped from the surface of the culture dish by using a cell scraper and dispersed into single cells by pipetting. Thereafter, the aforementioned human ES cells dispersed into single cells were suspended in 100 μl of a serum-free medium at 9×10^3 cells per well of a non-cell-adhesive 96-well culture plate (PrimeSurface 96V-bottom plate, manufactured by SUMITOMO BAKELITE), and cultured in suspension under the conditions of 37° C., 5% CO2. […]
# [4] = tested on: Human ES cells (KhES-1 strain); test: Timing of addition of BMP4 in production of cell mass from human ES cells; bright field observation; conditions: for structure of cell mass (bright field): observed day 10
# Procedure: as §1, §2, §3
# The condition without addition of a BMP signal transduction pathway activating substance during the suspension culturing period was taken as the control (-BMP4 condition, FIG. 3A). Thereafter, in the condition with the addition of a BMP signal transduction pathway activating substance on days 1, 2 or 3 from the start of suspension culturing (Day1-3+BMP4 condition, FIGS. 3B-D), a serum-free medium not containing Y27632 and containing IWP-2, SB-431542, BMP4 was added at 100 μl per well. BMP4 was added at 3 nM to the medium so that the final concentration in the well would be 1.5 nM. […] On day 10 from the start of suspension culturing, bright field observation was performed using an inverted microscope (manufactured by KEYENCE CORPORATION, BIOREVO) (FIGS. 3A-D).
# [5] = tested on: Human ES cells (KhES-1 strain); test: Addition concentration of BMP4 in production of cell mass containing pituitary tissue; bright field observation; conditions: 0.5 nM, 1.5 nM or 5 nM BMP4 added once on day 2; day 28
# Procedure: as §1, §2, §3
# A serum-free medium not containing Y27632 and containing IWP-2, SB-431542, BMP4, and SAG was added at 100 μl per well on day 2 from the start of suspension culturing. In this case, the amount of BMP4 to be added was under 4 conditions of 0.5 nM, 1.5 nM, 5 nM and no addition control. BMP4 was added at twice the concentration set for the medium so that the final concentration set for the well could be achieved. SAG was added at 4 μM to the medium so that the final concentration in the well would be 2 μM.
# A half amount of the medium was changed with a serum-free medium not containing Y27632 or BMP4 and containing IWP-2, SB-431542 and SAG on days 6, 10, 13, 17, 21 and 24 from the start of suspension culturing.
# Bright field observation was performed under an inverted microscope on day 28 from the start of suspension culturing (FIGS. 8A-D).
molecule,measurement,setting,value
CNC1CCC(N(Cc2cccc(-c3ccncc3)c2)C(=O)c2sc3ccccc3c2Cl)CC1 (stereo not shown) [SAG],size of cell mass and formation of pituitary tissue on the surface,"[1]; SAG 100 nM, 300 nM, 500 nM, 700 nM, 1 μM or 2 μM compared with 5 μM",the size of the cell mass was larger and formation of pituitary tissue on the surface of cell mass was fine
same,structure of cell mass (bright field),"[1]; SAG 100, 300, 500, 700 nM, 1, 2, 5 μM added on day 2, compared with no SAG",cell masses with the nonneural epithelial tissue invaginated like Rathke's pouch on the surface and containing neuroepithelium-like tissue and mesenchymal cells in the inside
same,size of cell mass,[2]; pre-treatment with 300 nM SAG alone vs no addition,cell mass became large
same,presence of mesenchymal cell,[2]; pre-treatment with 300 nM SAG alone,the presence of a mesenchymal cell could also be confirmed
"COc1cc(-c2cc(-c3cccc(O)c3)cnc2N)cc(OC)c1OC [K02288, 3-[6-amino-5-(3,4,5-trimethoxyphenyl)-3-pyridinyl]-phenol]",cell mass formation (bright field),[3],a cell mass in which nonneural epithelial tissue surrounds neural tissue of the center part was formed
B1,effective timing of addition from start of suspension culturing for formation of cell mass coated with nonneural epithelial tissue,[4]; BMP4 1.5 nM,≤ 72 h
same,structure of cell mass (bright field),[4]; BMP4 1.5 nM added on day 1 or day 2,cell masses containing neural tissue and nonneural epithelial tissue and having a two-layer structure in which a center part with a neuroepithelium-like structure is covered with a nonneural epithelium-like layer were formed
same,structure of cell mass (bright field),[4]; BMP4 1.5 nM added on day 3 (and day 6),outer nonneural epithelium-like tissue was not formed
same,size of embryoid body,"[4]; BMP4 added on day 2 compared with day 1, day 10",larger than the embryoid body obtained under the condition with the addition of BMP4 on day 1
same,nonneural epithelial structure on surface of cell mass,[5],a nonneural epithelial structure was formed on the surface of the cell mass
